SMILES strings stand for the structures. Values after ≈ are worked out from the molar mass of the structure shown.

Holding throughout (format): functional
The test system of one assay is Enterococcus faecium. Description: Antibacterial activity against vancomycin-resistant Enterococcus faecium A2280 by agar dilution method. For orientation: In agar dilution, organisms are placed on agar that contains the substance at set levels.
Assay [1] relates to Staphylococcus aureus. Description: Antibacterial activity against methicillin-sensitive Staphylococcus aureus Smith by agar dilution method.
For assay [2], the system named is Streptococcus pneumoniae. Description: Antibacterial activity against penicillin-susceptible Streptococcus pneumoniae IID553 by agar dilution method.
For assay [3], the system named is Staphylococcus aureus. Description: Antibacterial activity against methicillin-resistant Staphylococcus aureus TK7 by agar dilution method.
The test system of assay [4] is Streptococcus pneumoniae. Description: Antibacterial activity against penicillin-resistant Streptococcus pneumoniae PR44 by agar dilution method.
The subject of a further assay is Haemophilus influenzae. Description: Antibacterial activity against Haemophilus influenzae IID983 by agar dilution method.

With `N#C[C@]1(c2ccc(-c3c(F)cc(N4C[C@H](Cn5ccnn5)OC4=O)cc3F)cn2)[C@@H]2CS(=O)(=O)C[C@@H]21`, the MIC in the assay on Enterococcus faecium worked out at 0.125 µg/mL (≈ 0.244 µM); against Staphylococcus aureus [1] it was 0.06 µg/mL (≈ 0.117 µM); in the assay on Streptococcus pneumoniae [2], 0.06 µg/mL (≈ 0.117 µM); in the assay on Staphylococcus aureus [3] it was 0.06 µg/mL (≈ 0.117 µM); in the assay on Streptococcus pneumoniae [4] it was 0.06 µg/mL (≈ 0.117 µM); against Haemophilus influenzae it was 4 µg/mL (≈ 7.8 µM).
As for `N#C[C@]1(c2ccc(-c3ccc(N4C[C@H](Cn5ccnn5)OC4=O)cc3F)cc2F)[C@@H]2CNC[C@@H]21`, the MIC with Enterococcus faecium was 0.25 µg/mL (≈ 0.541 µM); in the assay on Staphylococcus aureus [1], 0.25 µg/mL (≈ 0.541 µM); in the assay on Streptococcus pneumoniae [2], 0.25 µg/mL (≈ 0.541 µM); against Staphylococcus aureus [3], 0.125 µg/mL (≈ 0.27 µM); against Streptococcus pneumoniae [4] it was 0.25 µg/mL (≈ 0.541 µM); in the assay on Haemophilus influenzae, 16 µg/mL (≈ 34.6 µM).
Turning to `N#C[C@]1(c2ccc(-c3ccc(N4C[C@H](CNC(=O)C5CC5)OC4=O)cc3F)cn2)[C@@H]2CNC[C@@H]21`, the MIC came to 0.5 µg/mL (≈ 1.08 µM) in the assay with Enterococcus faecium; 0.5 µg/mL (≈ 1.08 µM) in the assay on Staphylococcus aureus [1]; 0.25 µg/mL (≈ 0.542 µM) against Streptococcus pneumoniae [2]; 0.25 µg/mL (≈ 0.542 µM) in the assay on Staphylococcus aureus [3]; 0.25 µg/mL (≈ 0.542 µM) against Streptococcus pneumoniae [4]; 8 µg/mL (≈ 17.3 µM) against Haemophilus influenzae.
In the case of `N#C[C@]1(c2ccc(-c3c(F)cc(N4C[C@H](Cn5ccnn5)OC4=O)cc3F)cn2)[C@@H]2C[S+]([O-])C[C@@H]21` (some centres undefined), the MIC came to 0.125 µg/mL (≈ 0.252 µM) with Enterococcus faecium; 0.06 µg/mL (≈ 0.121 µM) against Staphylococcus aureus [1]; 0.125 µg/mL (≈ 0.252 µM) against Streptococcus pneumoniae [2]; 0.06 µg/mL (≈ 0.121 µM) against Staphylococcus aureus [3]; 0.125 µg/mL (≈ 0.252 µM) with Streptococcus pneumoniae [4]; 8 µg/mL (≈ 16.1 µM) in the assay with Haemophilus influenzae.
`COC(=S)NC[C@H]1CN(c2ccc(-c3ccc([C@@]4(C#N)[C@@H]5CNC[C@@H]54)nc3)c(F)c2)C(=O)O1`: the MIC in the assay with Enterococcus faecium was 0.06 µg/mL (≈ 0.128 µM); against Staphylococcus aureus [1] it was 0.03 µg/mL (≈ 0.0642 µM); with Streptococcus pneumoniae [2] it was 0.03 µg/mL (≈ 0.0642 µM); in the assay on Staphylococcus aureus [3], 0.03 µg/mL (≈ 0.0642 µM); against Streptococcus pneumoniae [4], 0.03 µg/mL (≈ 0.0642 µM); in the assay on Haemophilus influenzae, 0.5 µg/mL (≈ 1.07 µM).
For `CC(=S)NC[C@H]1CN(c2ccc(-c3ccc([C@@]4(C#N)[C@@H]5CNC[C@@H]54)nc3)c(F)c2)C(=O)O1`, the MIC against Enterococcus faecium was 0.06 µg/mL (≈ 0.133 µM); against Staphylococcus aureus [1] it was 0.06 µg/mL (≈ 0.133 µM); in the assay with Streptococcus pneumoniae [2], 0.06 µg/mL (≈ 0.133 µM); with Staphylococcus aureus [3] it was 0.03 µg/mL (≈ 0.0664 µM); in the assay with Streptococcus pneumoniae [4], 0.03 µg/mL (≈ 0.0664 µM); in the assay on Haemophilus influenzae it was 2 µg/mL (≈ 4.43 µM).
In the case of `N#C[C@]1(c2ccc(-c3c(F)cc(N4C[C@H](Cn5ccnn5)OC4=O)cc3F)cn2)[C@@H]2COC[C@@H]21`, the MIC is 0.25 µg/mL (≈ 0.538 µM) with Enterococcus faecium; 0.06 µg/mL (≈ 0.129 µM) in the assay on Staphylococcus aureus [1]; 0.25 µg/mL (≈ 0.538 µM) against Streptococcus pneumoniae [2]; 0.06 µg/mL (≈ 0.129 µM) in the assay with Staphylococcus aureus [3]; 0.125 µg/mL (≈ 0.269 µM) against Streptococcus pneumoniae [4]; 4 µg/mL (≈ 8.61 µM) with Haemophilus influenzae.
As to `N#C[C@]1(c2ccc(-c3ccc(N4C[C@H](Cn5ccnn5)OC4=O)cc3)cn2)[C@@H]2C[S+]([O-])C[C@@H]21` (some centres undefined), the MIC in the assay with Enterococcus faecium stood at 0.25 µg/mL (≈ 0.543 µM); against Staphylococcus aureus [1], 0.125 µg/mL (≈ 0.271 µM); in the assay on Streptococcus pneumoniae [2] it was 0.125 µg/mL (≈ 0.271 µM); against Staphylococcus aureus [3], 0.125 µg/mL (≈ 0.271 µM); against Streptococcus pneumoniae [4] it was 0.125 µg/mL (≈ 0.271 µM); in the assay on Haemophilus influenzae, 8 µg/mL (≈ 17.4 µM).
For `N#C[C@]1(c2ccc(-c3ccc(N4C[C@H](Cn5ccnn5)OC4=O)cc3F)cn2)[C@@H]2CS(=O)(=O)C[C@@H]21`, the MIC stood at 0.06 µg/mL (≈ 0.121 µM) in the assay with Enterococcus faecium; 0.06 µg/mL (≈ 0.121 µM) with Staphylococcus aureus [1]; 0.125 µg/mL (≈ 0.253 µM) against Streptococcus pneumoniae [2]; 0.125 µg/mL (≈ 0.253 µM) in the assay with Staphylococcus aureus [3]; 0.06 µg/mL (≈ 0.121 µM) against Streptococcus pneumoniae [4]; 4 µg/mL (≈ 8.09 µM) in the assay on Haemophilus influenzae.
Consider `N#C[C@]1(c2ccc(-c3ccc(N4C[C@H](COc5ccon5)OC4=O)cc3F)cn2)[C@@H]2CNC[C@@H]21`, for which the MIC against Enterococcus faecium was found to be 0.125 µg/mL (≈ 0.271 µM); against Staphylococcus aureus [1], 0.06 µg/mL (≈ 0.13 µM); with Streptococcus pneumoniae [2] it was 0.125 µg/mL (≈ 0.271 µM); in the assay with Staphylococcus aureus [3], 0.06 µg/mL (≈ 0.13 µM); with Streptococcus pneumoniae [4], 0.06 µg/mL (≈ 0.13 µM); against Haemophilus influenzae, 4 µg/mL (≈ 8.67 µM).
For `N#C[C@]1(c2ccc(-c3ccc(N4C[C@H](Cn5ccnn5)OC4=O)cc3F)cn2)[C@@H]2CNC[C@@H]21`, the MIC with Enterococcus faecium amounted to 0.125 µg/mL (≈ 0.281 µM); with Staphylococcus aureus [1] it was 0.06 µg/mL (≈ 0.135 µM); against Streptococcus pneumoniae [2] it was 0.06 µg/mL (≈ 0.135 µM); with Staphylococcus aureus [3], 0.06 µg/mL (≈ 0.135 µM); against Streptococcus pneumoniae [4] it was 0.06 µg/mL (≈ 0.135 µM); against Haemophilus influenzae, 2 µg/mL (≈ 4.49 µM).
Take `N#C[C@]1(c2ccc(-c3ccc(N4C[C@H](Cn5ccnn5)OC4=O)cc3)cn2)[C@@H]2COC[C@@H]21`: the MIC amounted to 0.25 µg/mL (≈ 0.583 µM) in the assay on Enterococcus faecium; 0.06 µg/mL (≈ 0.14 µM) against Staphylococcus aureus [1]; 0.125 µg/mL (≈ 0.292 µM) against Streptococcus pneumoniae [2]; 0.06 µg/mL (≈ 0.14 µM) in the assay with Staphylococcus aureus [3]; 0.125 µg/mL (≈ 0.292 µM) in the assay on Streptococcus pneumoniae [4]; 4 µg/mL (≈ 9.34 µM) in the assay on Haemophilus influenzae.
Take `N#C[C@]1(c2ccc(-c3ccc(N4C[C@H](Cn5ccnn5)OC4=O)cc3)cn2)[C@@H]2CNC[C@@H]21`: the MIC against Enterococcus faecium stood at 0.25 µg/mL (≈ 0.585 µM); in the assay with Staphylococcus aureus [1], 0.125 µg/mL (≈ 0.292 µM); against Streptococcus pneumoniae [2] it was 0.125 µg/mL (≈ 0.292 µM); in the assay with Staphylococcus aureus [3], 0.125 µg/mL (≈ 0.292 µM); against Streptococcus pneumoniae [4], 0.125 µg/mL (≈ 0.292 µM); against Haemophilus influenzae, 2 µg/mL (≈ 4.68 µM).
As to `N#C[C@]1(c2ccc(-c3ccc(N4C[C@H](Cn5ccnn5)OC4=O)cc3F)cc2)[C@@H]2CNC[C@@H]21`, the MIC in the assay on Enterococcus faecium amounted to 0.25 µg/mL (≈ 0.562 µM); against Staphylococcus aureus [1] it was 0.125 µg/mL (≈ 0.281 µM); in the assay on Streptococcus pneumoniae [2], 0.125 µg/mL (≈ 0.281 µM); against Staphylococcus aureus [3], 0.06 µg/mL (≈ 0.135 µM); in the assay with Streptococcus pneumoniae [4], 0.06 µg/mL (≈ 0.135 µM); against Haemophilus influenzae, 4 µg/mL (≈ 9 µM).

Source of the values: ChEMBL document CHEMBL1140184, “Synthesis and structure-activity relationship studies of highly potent novel oxazolidinone antibacterials” (2008).
